Test results taken from patent publication US9575054B2, “Identification of antitumor compounds using placenta” (Anthrogenesis Corporation, priority 2013, dated 2017).

How the values were obtained:
Type in all cases: cell-based, human
[1] = test system: MDA-MB231/Luciferase positive cells; assay: Luciferase expression (IVIS imaging) of MDA-MB231/Luciferase cells in placental cotyledon; conditions: TSA 100 ng/mL, 4 days in bioreactor, single cotyledon
Method: MDA-MB231/Luciferase positive cells were infused into the vasculature of a single isolated cotyledon (40×10^6 cells/cotyledon). Trichostatin A (TSA, 100 ng/mL) was added to the growth medium (300 mL) and the cells were cultured for 4 days in a bioreactor. As a control, an equivalent number (40×10^6 cells/cotyledon) of MDA-MB231/Luc cells were infused into the vasculature of a single isolated cotyledon and cultured in growth medium only for 4 days in a bioreactor. After 4 days of culture, each cotyledon was transferred to growth medium comprising Luciferin (150 ng/mL) for 10 minutes. Both cotyledons then were analyzed using the IVIS imaging system.

[2] = test system: HCT116 cells; assay: MTS cell viability, HCT116 cells cultured in wells only; conditions: HCT116 alone, 48 hours, control 100.00%
Method: (§1) Blocks of decellularized placental vascular scaffold (DPVS) in 24-well plates were seeded with HCT116 cells (1×10^5 cells/per well), a human colorectal cancer cell line. As a control, HCT116 cells were cultured in wells only, i.e., in the absence of DPVS. Trichostatin A (TSA), a drug contemplated for use in the treatment of cancer, was added to the DPVS/cells or cells alone at concentrations of 20 μM and 100 μM, or was not added at all (as a control). After 48 hours of culture, cell viability was measured by MTS assay. […] Thus, DPVS can be used a platform for assessing cancer cell killing by potential antitumor compounds.

[3] = test system: HCT116 cells; assay: MTS cell viability, HCT116 cells seeded on decellularized placental vascular scaffold (DPVS); conditions: 48 hours, control 100.00%
Method: as §1

[4] = test system: MDA-MB231/Luc and CRL1803-TT (thyroid tissue carcinoma) cells; assay: Calcitonin ELISA of culture medium from tumor cells in placental cotyledon; conditions: TSA 100 ng/mL, 10-day culture, single cotyledon, FIG. 1B
Method: (§2) Trichostatin A (TSA, 100 ng/mL) was added to the growth medium (300 mL) and the cells were cultured for 10 days in a bioreactor. As a control, MDA-MB231/Luc and CRL1803-TT were infused into the vasculature of a single isolated cotyledon (3×10^6 cells/cotyledon) and cultured in growth medium only for 10 days in a bioreactor.
(§3) Culture medium was collected throughout the culture period and measured for Calcitonin levels by ELISA. In addition, at the end of the culture (day-10), the numbers of viable cells in both the TSA-treated and control cotyledons were determined by MTS assay.

[5] = test system: MDA-MB231/Luc and CRL1803-TT (thyroid tissue carcinoma) cells; assay: MTS viable cell number of tumor cells in decellularized placental cotyledon (bioreactor); conditions: TSA 100 ng/mL, 10 days in bioreactor, single cotyledon, FIG. 1A
Method: as §2, §3

[6] = test system: MDA-MB231/Luciferase cells; assay: Luciferase activity (Xenogen IVIS) of MDA-MB231/Luciferase cells on DPVS; conditions: TSA 100 ng/mL, 24 hours, cells on DPVS in 6-well plates; untreated 25.63×10^6
Method: Cells expressing luciferase were detected visually and quantitatively, using the Xenogen IVIS spectrum, by measuring Luciferase activity of the cells, which is indicative of cell number.
To examine the anti-cancer drug effect on cancer cells grown in DPVS, 1.5×10^5 MDA-MB231/Luciferase cells (a human breast cancer (adenocarcinoma) cell line that expresses luciferase; Cell Biolabs) were seeded onto DPVS in 6-well plates. One set of cells/DPVS was treated with Trichostatin A (TSA, 100 ng/mL) for 24 hours. Luciferase expression by the TSA-treated cells cultured on DPVS was compared with control cultures comprising cells/DPVS that were not treated with TSA. […] Thus, DPVS can be used to study the ability of cancer drugs, e.g., TSA, to affect cancer cell growth in a three-dimensional context.

SMILES: CC(/C=C/C(=O)NO)=C\[C@@H](C)C(=O)c1ccc(N(C)C)cc1 [TSA, Trichostatin A]
- luciferase expression vs cotyledon cultured in the absence of TSA [1]: marked decrease in luciferase expression
- Cell viability (% of untreated control) ([2]; TSA 20 uM): 11.21%
- Cell viability (% of untreated control) ([2]; TSA 100 uM): 10.36%
- Cell viability (% of untreated control) ([3]; TSA 20 uM): 97.00%
- Cell viability (% of untreated control) ([3]; TSA 100 uM): 73.32%
- Calcitonin production by the cells [4]: reduced
- cell survival (viable cells by MTS) vs growth medium control [5]: reduced cell survival
- luciferase signal [6]: 8.22×10^6
